Patent publication US8377929B2, “Crystalline forms of the tri-mesylate salt of perphenazine-GABA and process of producing the same” (Ramot at Tel-Aviv University Ltd., priority 2010, dated 2013)

Columns and labels:
Type in all cases: physicochemical
[1] = Bulk and tapped density
Source text: Samples were submitted to Particle Technology Labs (PTL), Downers Grove, Ill., for bulk and tapped density analyses.

[2] = BET surface area (nitrogen absorption); details: 11-point BET, outgassed at 40° C. under vacuum
Protocol: Surface area data were collected using nitrogen absorption on a BET Micrometics Gemini V (11-point BET analysis) analyzer. The samples were outgassed at 40° C. under vacuum for at least 2 hours. SRM 1899 and SRM 1900 were used as the calibration standards.

[3] = Particle size (Malvern MS2000); parameters: unit not given here; details: particle size distribution, 0.1% SPAN 85 in hexane, sonication 10 seconds, unit μm
Source text: Particle size data was acquired using a Malvern Instruments MS2000 equipped with a Hydro2000 μP dispersion unit. Data was collected and analyzed with Mastersizer 2000 v. 5.1 software, using volume based measurements. NIST traceable glass beads were used as the reference standard. […] Model: general purpose; Sensitivity: normal.

[4] = Stability and hygroscopy of crystalline Form B compared to crystalline Form A; details: as compared to crystalline Form A
[5] = Moisture absorption/desorption (DVS); details: for Weight gain from 5-55% RH / Weight gain from 55-95% RH: DVS adsorption phase; for Weight gain from 55-95% RH: samples did not reach equilibration; for Weight loss from 95-5% RH: DVS desorption phase; for Weight loss at 5% RH: DVS, upon equilibration to 5% RH
Protocol: Moisture absorption/desorption (DVS) data was collected on a VTI SGA-100 Vapor Sorption Analyzer. Absorption and desorption data were collected over a range of 5% to 95% relative humidity (RH) at 10% RH intervals under a nitrogen purge. Samples were not dried prior to analyses. Equilibrium criteria used for analyses were less than 0.0100% weight change in 5 minutes, with a maximum equilibrium time of 3 hours if the weight criterion was not met. Data were not corrected for the initial moisture content of the samples. NaCl and PVP were used as calibration standards.

CS(=O)(=O)O.CS(=O)(=O)O.CS(=O)(=O)O.NCCCC(=O)OCCN1CCN(CCCN2c3ccccc3Sc3ccc(Cl)cc32)CC1 [BL-1020 MSA salt crystalline Form B, perphenazine 4-aminobutyrate trimesylate]
Bulk density ([1]; listed as 01BIL02-01-22): 0.16 g/mL
Tapped density ([1]; listed as 01BIL02-01-22): 0.25 g/mL
Bulk density ([1]; listed as 01BIL02-02-22): 0.16 g/mL
Tapped density ([1]; listed as 01BIL02-02-22): 0.24 g/mL
Bulk density ([1]; listed as 01BIL02-03-22): 0.18 g/mL
Tapped density ([1]; listed as 01BIL02-03-22): 0.26 g/mL
Bulk density ([1]; listed as 01BIL02-04-22): 0.13 g/mL
Tapped density ([1]; listed as 01BIL02-04-22): 0.22 g/mL
Bulk density ([1]; listed as 06-01915-3): 0.18 g/mL
Tapped density ([1]; listed as 06-01915-3): 0.24 g/mL
BET surface area ([2]; listed as 01BIL02-01-22): 4.77 m^2/g
BET surface area ([2]; listed as 01BIL02-02-22): 4.55 m^2/g
BET surface area ([2]; listed as 01BIL02-03-22): 4.93 m^2/g
BET surface area ([2]; listed as 01BIL02-04-22): 4.57 m^2/g
BET surface area ([2]; listed as 01BIL02-05-26): 2.67 m^2/g
BET surface area ([2]; listed as 06-01915-3): 4.84 m^2/g
d10 ([3]; listed as 01BIL02-01-22): 2.1
d50 ([3]; listed as 01BIL02-01-22): 5.8
d90 ([3]; listed as 01BIL02-01-22): 18.3
d10 ([3]; listed as 01BIL02-02-22): 2.1
d50 ([3]; listed as 01BIL02-02-22): 6.1
d90 ([3]; listed as 01BIL02-02-22): 22.5
d10 ([3]; listed as 01BIL02-03-22): 2.1
d50 ([3]; listed as 01BIL02-03-22): 6.2
d90 ([3]; listed as 01BIL02-03-22): 19.7
d10 ([3]; listed as 01BIL02-04-22): 2.3
d50 ([3]; listed as 01BIL02-04-22): 6.8
d90 ([3]; listed as 01BIL02-04-22): 21.8
d10 ([3]; listed as 06-01915-3): 3.8
d50 ([3]; listed as 06-01915-3): 9.3
d90 ([3]; listed as 06-01915-3): 41.8
Hygroscopy [4]: reduced hygroscopy
Stability [4]: higher stability
Weight gain from 5-55% RH ([5]; listed as 01BIL02-01-22): 0.4%
Weight gain from 5-55% RH ([5]; listed as 01BIL02-02-22): 0.4%
Weight gain from 5-55% RH ([5]; listed as 01BIL02-03-22): 0.4%
Weight gain from 5-55% RH ([5]; listed as 01BIL02-04-22): 0.4%
Weight gain from 5-55% RH ([5]; listed as 01BIL02-05-26): 0.4%
Weight gain from 5-55% RH ([5]; listed as 06-01915-3): 0.6%
Weight gain from 55-95% RH ([5]; listed as 01BIL02-01-22): 71.6%
Weight gain from 55-95% RH ([5]; listed as 01BIL02-02-22): 69.8%
Weight gain from 55-95% RH ([5]; listed as 01BIL02-03-22): 72.7%
Weight gain from 55-95% RH ([5]; listed as 01BIL02-04-22): 70.5%
Weight gain from 55-95% RH ([5]; listed as 01BIL02-05-26): 68.9%
Weight gain from 55-95% RH ([5]; listed as 06-01915-3): 71.6%
Weight loss from 95-5% RH ([5]; listed as 01BIL02-01-22): 67.0%
Weight loss from 95-5% RH ([5]; listed as 01BIL02-02-22): 64.8%
Weight loss from 95-5% RH ([5]; listed as 01BIL02-03-22): 67.6%
Weight loss from 95-5% RH ([5]; listed as 01BIL02-04-22): 66.0%
Weight loss from 95-5% RH ([5]; listed as 01BIL02-05-26): 64.8%
Weight loss from 95-5% RH ([5]; listed as 06-01915-3): 66.9%
Weight loss at 5% RH ([5]; listed as 01BIL02-01-22): 0.1%
Weight loss at 5% RH ([5]; listed as 01BIL02-02-22): 0.1%
Weight loss at 5% RH ([5]; listed as 01BIL02-03-22): 0.1%
Weight loss at 5% RH ([5]; listed as 01BIL02-04-22): 0.1%
Weight loss at 5% RH ([5]; listed as 01BIL02-05-26): 0.3%
Weight loss at 5% RH ([5]; listed as 06-01915-3): 0.6%
